How the values were obtained:
[1] = MTT anti-proliferation assay, non-tumorigenic cells; assay type: cell-based; conditions: human, non-tumorigenic MCF-10A cells, 24 h treatment
Method: (§1) Initial experiments were performed for evaluation of growth inhibition by the new compounds against six human breast cancer cell lines, including MCF-7 (ER+/PR+, HER-2-), BT474 (ER+/PR+, HER-2+), SKBR-3 (ER-/PR-/HER-2+), MDA-MB-436 (ER-/PR-/HER-2-), MDA-MB-231 (ER-/PR-/HER-2-), MDA-MB-468 (ER-/PR-/HER-2-) and non-tumorigenic MCF-10A cells. After 24 h treatment by the obtained compounds, the inhibition was assessed and the IC50 was summarized. […] Subsequently, the inhibition of STAT3 activation by PMM-172 and Stattic was evaluated using a dual-luciferase assay.
(§2) The anti-proliferative activities of the prepared compounds against MCF-7 (ER+/PR+, HER-2-), BT474 (ER+/PR+, HER-2+), SKBR-3 (ER-/PR-/HER-2+), MDA-MB-436 (ER-/PR-/HER-2-), MDA-MB-231 (ER-/PR-/HER-2-), MDA-MB-468 (ER-/PR-/HER-2-) and non-tumorigenic MCF-10A cell lines were evaluated using a standard (MTT)-based colorimetric assay with some modification. Cell lines were grown to log phase in DMEM supplemented with 10% fetal bovine serum. Cell suspensions were prepared and 100 μL/well dispensed into 96-well plates giving 10^4 cells/well. The subsequent incubation was permitted at 37 °C, 5% CO2 atmosphere for 24 h to allow the cells to reattach. Subsequently, cells were treated with the target compounds at increasing concentrations in the presence of 10% FBS for 24 h. Then, cell viability was assessed by the conventional 3-(4, 5-dimethylthiazol-2-yl)-2, 5-diphenyltetrazolium bromide (MTT) reduction assay and carried out strictly according to the manufacturer instructions. The absorbance (OD570) was read on an ELISA reader (Tecan, Austria). In all experiments, three replicate wells were used for each drug concentration. Each assay was carried out for at least three times.

[2] = test system: MDA-MB-468; test: MTT anti-proliferation assay; assay type: cell-based, human; conditions: Homo sapiens, MDA-MB-468, 24 h treatment
Method: as §1, §2

[3] = test system: MDA-MB-231; test: MTT anti-proliferation assay; assay type: cell-based, human
Method: as §1, §2

[4] = test system: MCF-7; test: MTT anti-proliferation assay; assay type: cell-based, human; conditions: Homo sapiens, MCF7, 24 h treatment
Method: as §1, §2

[5] = test system: BT-474; test: MTT anti-proliferation assay; assay type: cell-based, human; conditions: Homo sapiens, BT-474, 24 h treatment
Method: as §1, §2

[6] = test system: SKBR-3; test: MTT anti-proliferation assay; assay type: cell-based, human; conditions: Homo sapiens, SK-BR-3, 24 h treatment
Method: as §1, §2

[7] = test system: MDA-MB-436; test: MTT anti-proliferation assay; assay type: cell-based, human; conditions: Homo sapiens, MDA-MB-436, 24 h treatment
Method: as §1, §2

[8] = Homo sapiens, MDA-MB-231, 24 h treatment

| IC50 [2] [µM] | IC50 [3, 8] [µM] | IC50 [4] [µM] | IC50 [5] [µM] | IC50 [6] [µM] | IC50 [7] [µM] | Compound | CC50 at 24 h [1] [µM] | IC50 ([3]; 24 h treatment) [µM] | IC50 ([3]; Homo sapiens, MDA-MB-231, 24 h, 24 h treatment) [µM] |
| --- | --- | --- | --- | --- | --- | --- | --- | --- | --- |
| 10.6 ± 0.65 | 9.17 ± 0.99 | 12.1 ± 0.42 | 15.6 ± 1.03 | 11.5 ± 0.74 | 10.1 ± 0.92 | CC(C)=CC[C@@H](OC(=O)CSc1nnc(-c2ccccc2)o1)C1=CC(=O)c2c(O)ccc(O)c2C1=O [PMM-158, (R)-1-(5,8-dihydroxy-1,4-dioxo-1,4-dihydronaphthalen-2-yl)-4-methylpent-3-en-1-yl 2-((5-phenyl-1,3,4-oxadiazol-2-yl)thio)acetate] | 92.5 ± 0.27 |  |  |
| 8.23 ± 1.27 | 7.24 ± 0.82 | 9.22 ± 0.13 | 10.8 ± 0.94 | 8.95 ± 0.69 | 8.49 ± 0.78 | CC(C)=CC[C@@H](OC(=O)CSc1nnc(-c2ccc(F)cc2)o1)C1=CC(=O)c2c(O)ccc(O)c2C1=O [PMM-159, (R)-1-(5,8-dihydroxy-1,4-dioxo-1,4-dihydronaphthalen-2-yl)-4-methylpent-3-en-1-yl 2-((5-(4-fluorophenyl)-1,3,4-oxadiazol-2-yl)thio)acetate] | 89.5 ± 0.99 |  |  |
| 12.4 ± 0.52 | 9.66 ± 1.21 | 15.3 ± 0.52 | 18.3 ± 1.24 | 10.5 ± 0.88 | 11.8 ± 0.86 | CC(C)=CC[C@@H](OC(=O)CSc1nnc(-c2cccc(F)c2)o1)C1=CC(=O)c2c(O)ccc(O)c2C1=O [PMM-160, (R)-1-(5,8-dihydroxy-1,4-dioxo-1,4-dihydronaphthalen-2-yl)-4-methylpent-3-en-1-yl 2-((5-(3-fluorophenyl)-1,3,4-oxadiazol-2-yl)thio)acetate] | 68.3 ± 0.27 |  |  |
| 8.97 ± 1.05 | 8.58 ± 0.53 | 9.81 ± 0.49 | 11.1 ± 1.12 | 9.29 ± 0.66 | 9.55 ± 0.83 | CC(C)=CC[C@@H](OC(=O)CSc1nnc(-c2ccccc2F)o1)C1=CC(=O)c2c(O)ccc(O)c2C1=O [PMM-161, (R)-1-(5,8-dihydroxy-1,4-dioxo-1,4-dihydronaphthalen-2-yl)-4-methylpent-3-en-1-yl 2-((5-(2-fluorophenyl)-1,3,4-oxadiazol-2-yl)thio)acetate] | 84.5 ± 0.74 |  |  |
| 6.85 ± 0.92 | 6.14 ± 1.05 | 9.01 ± 0.92 | 9.54 ± 0.91 | 8.03 ± 0.83 | 7.28 ± 0.77 | CC(C)=CC[C@@H](OC(=O)CSc1nnc(-c2ccc(Cl)cc2)o1)C1=CC(=O)c2c(O)ccc(O)c2C1=O [PMM-162, (R)-1-(5,8-dihydroxy-1,4-dioxo-1,4-dihydronaphthalen-2-yl)-4-methylpent-3-en-1-yl 2-((5-(4-chlorophenyl)-1,3,4-oxadiazol-2-yl)thio)acetate] | 91.9 ± 1.21 |  |  |
| 3.94 ± 0.73 | 3.76 ± 1.02 | 5.71 ± 0.52 | 7.09 ± 0.65 | 4.49 ± 0.58 | 4.41 ± 0.55 | CC(C)=CC[C@@H](OC(=O)CSc1nnc(-c2ccccc2Cl)o1)C1=CC(=O)c2c(O)ccc(O)c2C1=O [PMM-164, (R)-1-(5,8-dihydroxy-1,4-dioxo-1,4-dihydronaphthalen-2-yl)-4-methylpent-3-en-1-yl 2-((5-(2-chlorophenyl)-1,3,4-oxadiazol-2-yl)thio)acetate] | 74.6 ± 0.55 |  |  |
| 6.58 ± 0.15 | 5.47 ± 1.01 | 9.38 ± 0.66 | 9.22 ± 0.98 | 6.23 ± 0.73 | 5.97 ± 0.67 | CC(C)=CC[C@@H](OC(=O)CSc1nnc(-c2ccc(Br)cc2)o1)C1=CC(=O)c2c(O)ccc(O)c2C1=O [PMM-165, (R)-1-(5,8-dihydroxy-1,4-dioxo-1,4-dihydronaphthalen-2-yl)-4-methylpent-3-en-1-yl 2-((5-(4-bromophenyl)-1,3,4-oxadiazol-2-yl)thio)acetate] | 83.7 ± 1.28 |  |  |
| 4.07 ± 0.66 | 3.64 ± 0.91 | 6.41 ± 0.75 | 6.91 ± 0.73 | 4.87 ± 0.58 | 4.66 ± 0.59 | CC(C)=CC[C@@H](OC(=O)CSc1nnc(-c2cccc(Br)c2)o1)C1=CC(=O)c2c(O)ccc(O)c2C1=O [PMM-166, (R)-1-(5,8-dihydroxy-1,4-dioxo-1,4-dihydronaphthalen-2-yl)-4-methylpent-3-en-1-yl 2-((5-(3-bromophenyl)-1,3,4-oxadiazol-2-yl)thio)acetate] | 69.9 ± 0.58 |  |  |
| 12.2 ± 0.42 | 9.01 ± 0.56 | 15.3 ± 0.61 | 13.7 ± 0.92 | 9.76 ± 0.95 | 10.6 ± 0.82 | CC(C)=CC[C@@H](OC(=O)CSc1nnc(-c2ccccc2Br)o1)C1=CC(=O)c2c(O)ccc(O)c2C1=O [PMM-167, (R)-1-(5,8-dihydroxy-1,4-dioxo-1,4-dihydronaphthalen-2-yl)-4-methylpent-3-en-1-yl 2-((5-(2-bromophenyl)-1,3,4-oxadiazol-2-yl)thio)acetate] | 72.5 ± 1.53 |  |  |
| 7.22 ± 1.11 | 5.33 ± 0.77 | 8.12 ± 0.98 | 8.36 ± 0.97 | 6.95 ± 0.82 | 7.36 ± 0.87 | COc1cccc(-c2nnc(SCC(=O)O[C@H](CC=C(C)C)C3=CC(=O)c4c(O)ccc(O)c4C3=O)o2)c1 [PMM-169, (R)-1-(5,8-dihydroxy-1,4-dioxo-1,4-dihydronaphthalen-2-yl)-4-methylpent-3-en-1-yl 2-((5-(3-methoxyphenyl)-1,3,4-oxadiazol-2-yl)thio)acetate] | 99.5 ± 0.49 |  |  |
| 8.44 ± 0.78 | 4.31 ± 0.65 | 9.73 ± 1.03 | 12.7 ± 1.06 | 8.27 ± 0.69 | 6.88 ± 0.73 | COc1ccccc1-c1nnc(SCC(=O)O[C@H](CC=C(C)C)C2=CC(=O)c3c(O)ccc(O)c3C2=O)o1 [PMM-170, (R)-1-(5,8-dihydroxy-1,4-dioxo-1,4-dihydronaphthalen-2-yl)-4-methylpent-3-en-1-yl 2-((5-(2-methoxyphenyl)-1,3,4-oxadiazol-2-yl)thio)acetate] | 94.6 ± 0.83 |  |  |
| 3.76 ± 0.88 | 2.59 ± 0.19 | 5.58 ± 0.83 | 6.03 ± 0.71 | 3.59 ± 0.49 | 4.06 ± 0.53 | CC(C)=CC[C@@H](OC(=O)CSc1nnc(-c2ccc(C)cc2)o1)C1=CC(=O)c2c(O)ccc(O)c2C1=O [PMM-173, (R)-1-(5,8-dihydroxy-1,4-dioxo-1,4-dihydronaphthalen-2-yl)-4-methylpent-3-en-1-yl 2-((5-(p-tolyl)-1,3,4-oxadiazol-2-yl)thio)acetate] | 88.9 ± 0.34 |  |  |

| Compound | IC50 [2] [µM] | IC50 [3, 8] [µM] | IC50 [4] [µM] | IC50 [5] [µM] | IC50 [6] [µM] | IC50 [7] [µM] | CC50 at 24 h [1] [µM] | IC50 ([3]; 24 h treatment) [µM] | IC50 ([3]; Homo sapiens, MDA-MB-231, 24 h, 24 h treatment) [µM] |
| --- | --- | --- | --- | --- | --- | --- | --- | --- | --- |
| CC(C)=CC[C@@H](OC(=O)CSc1nnc(-c2cccc(Cl)c2)o1)C1=CC(=O)c2c(O)ccc(O)c2C1=O [PMM-163, (R)-1-(5,8-dihydroxy-1,4-dioxo-1,4-dihydronaphthalen-2-yl)-4-methylpent-3-en-1-yl 2-((5-(3-chlorophenyl)-1,3,4-oxadiazol-2-yl)thio)acetate] | 7.83 ± 0.55 | 6.04 ± 0.59 | 8.69 ± 0.83 | 9.27 ± 0.86 | 7.56 ± 0.72 | 7.09 ± 0.63 | 86.2 ± 0.33 |  |  |
| CC(C)=CC[C@@H](O)C1=CC(=O)c2c(O)ccc(O)c2C1=O [Shikonin, shikonin] | 3.61 ± 0.34 |  | 4.57 ± 0.69 | 5.74 ± 0.66 | 3.75 ± 0.52 | 3.28 ± 0.41 | 23.5 ± 1.01 | 2.88 ± 0.25 | 3.28 ± 0.41 |
